Laboratory results: patent US9718785B2, “1,3-Disubstituted cyclopentane derivatives” (MERCK PATENT GMBH, priority 2013, dated 2017)

Molecular target: T1, human recombinant full-length fatty acid synthase (FASN) (Homo sapiens, UniProt P49327)
T1 construct: 40 nM human recombinant full-length fatty acid synthase (produced in-house in SF9 cells); made in house; host or cells: SF9 insect cells
Test: Biochemical activity testing of human fatty acid synthase FASN (NADPH fluorescence intensity enzyme assay)
Conditions: human recombinant FASN, enzyme assay
Procedure, shortened: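 Recombinant full-length human FASN from SF9 cells, preincubated with compound (10 concentrations, top 30 μM final, 1% DMSO) and NADPH ≥15 min at room temperature, pH 7.0. Acetyl-CoA and malonyl-CoA added; NADPH fluorescence (340/460 nm) read before and after 30 min. IC50 from signal difference, normalised to uninhibited reaction and GSK837149A zero control.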

T1 sequence (P49327 whole entry): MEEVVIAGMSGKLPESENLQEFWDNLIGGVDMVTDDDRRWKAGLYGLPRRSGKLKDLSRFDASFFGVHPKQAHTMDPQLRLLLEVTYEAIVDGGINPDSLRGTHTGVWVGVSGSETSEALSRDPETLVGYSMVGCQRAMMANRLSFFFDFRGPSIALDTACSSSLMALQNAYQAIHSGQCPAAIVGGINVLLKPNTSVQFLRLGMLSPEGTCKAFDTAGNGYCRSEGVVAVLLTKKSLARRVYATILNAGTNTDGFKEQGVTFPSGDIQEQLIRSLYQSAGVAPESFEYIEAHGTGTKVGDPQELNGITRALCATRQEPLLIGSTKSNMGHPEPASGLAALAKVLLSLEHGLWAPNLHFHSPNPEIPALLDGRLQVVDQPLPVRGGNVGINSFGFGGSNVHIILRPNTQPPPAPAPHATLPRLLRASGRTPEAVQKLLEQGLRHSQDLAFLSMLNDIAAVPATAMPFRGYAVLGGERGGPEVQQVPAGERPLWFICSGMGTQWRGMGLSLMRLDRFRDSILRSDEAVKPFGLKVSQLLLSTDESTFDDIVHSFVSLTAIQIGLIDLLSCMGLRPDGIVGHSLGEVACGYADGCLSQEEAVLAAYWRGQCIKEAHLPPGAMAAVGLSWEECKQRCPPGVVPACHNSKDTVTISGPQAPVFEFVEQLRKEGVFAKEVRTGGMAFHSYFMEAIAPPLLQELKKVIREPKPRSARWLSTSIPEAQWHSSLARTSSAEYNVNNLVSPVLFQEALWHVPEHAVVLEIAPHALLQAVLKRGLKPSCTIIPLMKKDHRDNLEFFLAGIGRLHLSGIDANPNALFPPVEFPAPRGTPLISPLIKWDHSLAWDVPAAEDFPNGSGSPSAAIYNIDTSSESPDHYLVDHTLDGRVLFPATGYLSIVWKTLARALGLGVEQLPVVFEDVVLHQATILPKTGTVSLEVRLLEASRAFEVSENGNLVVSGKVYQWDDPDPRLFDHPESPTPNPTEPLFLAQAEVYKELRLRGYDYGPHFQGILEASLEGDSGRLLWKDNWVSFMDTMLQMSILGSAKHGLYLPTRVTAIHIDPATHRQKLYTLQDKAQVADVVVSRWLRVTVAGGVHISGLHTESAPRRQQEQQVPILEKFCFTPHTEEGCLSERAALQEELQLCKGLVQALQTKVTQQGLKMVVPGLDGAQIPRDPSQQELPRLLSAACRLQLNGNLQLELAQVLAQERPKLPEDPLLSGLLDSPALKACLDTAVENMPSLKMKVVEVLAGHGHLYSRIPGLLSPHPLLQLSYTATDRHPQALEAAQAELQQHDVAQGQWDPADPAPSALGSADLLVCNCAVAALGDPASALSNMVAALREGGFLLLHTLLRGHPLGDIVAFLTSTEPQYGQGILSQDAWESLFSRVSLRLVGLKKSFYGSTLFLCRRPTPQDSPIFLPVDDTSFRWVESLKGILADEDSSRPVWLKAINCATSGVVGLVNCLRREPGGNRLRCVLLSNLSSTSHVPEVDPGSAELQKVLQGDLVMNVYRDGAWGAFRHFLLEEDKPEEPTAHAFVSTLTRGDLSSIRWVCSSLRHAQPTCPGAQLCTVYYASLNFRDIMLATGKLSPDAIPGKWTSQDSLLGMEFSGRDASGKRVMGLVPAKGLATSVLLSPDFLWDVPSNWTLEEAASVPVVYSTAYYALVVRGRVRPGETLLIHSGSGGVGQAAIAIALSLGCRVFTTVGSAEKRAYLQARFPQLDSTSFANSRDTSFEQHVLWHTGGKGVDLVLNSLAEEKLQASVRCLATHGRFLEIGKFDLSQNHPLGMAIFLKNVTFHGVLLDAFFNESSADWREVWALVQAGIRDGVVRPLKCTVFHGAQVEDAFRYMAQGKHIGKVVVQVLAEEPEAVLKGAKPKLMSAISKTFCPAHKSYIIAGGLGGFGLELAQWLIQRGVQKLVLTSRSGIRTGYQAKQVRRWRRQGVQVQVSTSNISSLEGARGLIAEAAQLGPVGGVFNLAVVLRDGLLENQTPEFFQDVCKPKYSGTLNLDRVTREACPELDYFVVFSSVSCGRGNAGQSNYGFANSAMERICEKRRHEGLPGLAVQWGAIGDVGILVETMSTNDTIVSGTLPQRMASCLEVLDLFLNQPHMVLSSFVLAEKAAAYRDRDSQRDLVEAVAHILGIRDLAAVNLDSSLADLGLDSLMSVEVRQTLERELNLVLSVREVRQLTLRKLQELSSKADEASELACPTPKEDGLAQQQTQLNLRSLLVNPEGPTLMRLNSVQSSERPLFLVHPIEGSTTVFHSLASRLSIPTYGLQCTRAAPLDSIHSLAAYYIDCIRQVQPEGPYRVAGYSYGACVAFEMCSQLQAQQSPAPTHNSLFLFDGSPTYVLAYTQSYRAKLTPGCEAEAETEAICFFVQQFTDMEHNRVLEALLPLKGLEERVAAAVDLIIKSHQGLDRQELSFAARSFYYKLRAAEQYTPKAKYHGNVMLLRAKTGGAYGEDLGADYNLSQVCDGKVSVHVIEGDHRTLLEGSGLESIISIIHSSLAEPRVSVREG

| IC50 [nM] | SMILES |
| --- | --- |
| < 300 | CCC(=O)N[C@H]1CC[C@@H](n2nncc2-c2ccc(-c3cccc4[nH]ncc34)cc2)C1 [Compound A26, N-((1S,3R)-3-{5-[4-(1H-indazol-4-yl)-phenyl]-[1,2,3]triazol-1-yl}-cyclopentyl)-propionamide] |
| < 300 | CCC(=O)N[C@H]1CC[C@@H](n2nncc2-c2ccc(-c3ccc4cc[nH]c4c3)cc2)C1 [Compound A59, N-((1S,3R)-3-{5-[4-(1H-Indol-6-yl)-phenyl]-[1,2,3]triazol-1-yl}-cyclopentyl)-propionamide] |
| < 300 | CCC(=O)N[C@H]1CC[C@@H](n2nncc2-c2ccc(-c3ccc4ncsc4c3)cc2)C1 [Compound A60, N-{(1S,3R)-3-[5-(4-Benzothiazol-6-yl-phenyl)-[1,2,3]triazol-1-yl]-cyclopentyl}-propionamide] |
| < 300 | CCC(=O)N[C@H]1CC[C@@H](n2nncc2-c2ccc(-c3ccc4[nH]ccc4c3F)c(F)c2)C1 [Compound A119, N-((1S,3R)-3-{5-[3-Fluoro-4-(4-fluoro-1H-indol-5-yl)-phenyl]-[1,2,3]triazol-1-yl}-cyclopentyl)-propionamide] |
| < 300 | CCC(=O)N[C@H]1CC[C@@H](n2cnnc2-c2ccc(-c3ccc4c(ccn4C)c3)cc2)C1 [Compound A97, N-((1S,3R)-3-{3-[4-(1-Methyl-1H-indol-5-yl)-phenyl]-[1,2,4]triazol-4-yl}-cyclopentyl)-propionamide] |
| < 300 | CCC(=O)N[C@H]1CC[C@@H](n2nncc2-c2ccc(-c3ccc(C)c(F)c3)cc2)C1 [Compound A83, N-{(1S,3R)-3-[5-(3′-Fluoro-4′-methyl-biphenyl-4-yl)-[1,2,3]triazol-1-yl]-cyclopentyl}-propionamide] |
| < 300 | CCNC(=O)[C@H]1CC[C@@H](n2cncc2-c2ccc(-c3nc4ccccc4o3)cc2)C1 [Compound A1, (1S,3R)-3-[5-(4-benzooxazol-2-yl-phenyl)-imidazol-1-yl]-cyclopentanecarboxylic acid ethylamide] |
| < 300 | CCC(=O)N[C@H]1CC[C@@H](n2cnnc2-c2ccc(-c3ccc(OC)cc3C)cc2)C1 [Compound A94, N-{(1S,3R)-3-[3-(4′-Methoxy-2′-methyl-biphenyl-4-yl)-[1,2,4]triazol-4-yl]-cyclopentyl}-propionamide] |
| < 300 | O=C(N[C@H]1CC[C@@H](n2nncc2-c2ccc(-c3nc4ccccc4o3)cc2)C1)[C@@H]1CCCO1 [Compound A69, (S)-Tetrahydro-furan-2-carboxylic acid {(1S,3R)-3-[5-(4-benzooxazol-2-yl-phenyl)-[1,2,3]triazol-1-yl]-cyclopentyl}-amide] |
| < 300 | CCC(=O)N[C@H]1CC[C@@H](n2nncc2-c2ccc(-c3ccc(Cl)cc3)cc2)C1 [Compound A25, N-{(1S,3R)-3-[5-(4′-chloro-biphenyl-4-yl)-[1,2,3]triazol-1-yl]-cyclopentyl}-propionamide] |
| < 300 | CCC(=O)N[C@H]1CC[C@@H](n2nncc2-c2ccc(-c3cc4cn[nH]c4cc3C)cc2)C1 [Compound A78, N-((1S,3R)-3-{5-[4-(6-Methyl-1H-indazol-5-yl)-phenyl]-[1,2,3]triazol-1-yl}-cyclopentyl)-propionamide] |
| < 300 | CC1(C)OC[C@@H](C(=O)N[C@H]2CC[C@@H](n3nncc3-c3ccc(-c4nc5ccccc5o4)cc3)C2)O1 [Compound A90, (S)-2,2-Dimethyl-[1,3]dioxolane-4-carboxylic acid {(1S,3R)-3-[5-(4-benzoxazol-2-yl-phenyl)-[1,2,3]triazol-1-yl]-cyclopentyl}-amide] |
| < 300 | CC1(NC(=O)[C@H]2CC[C@@H](n3cncc3-c3ccc(-c4ccc5ncsc5c4)cc3)C2)CC1 [Compound A6, (1S,3R)-3-[5-(4-benzothiazol-6-yl-phenyl)-imidazol-1-yl]-cyclopentanecarboxylic acid (1-methyl-cyclopropyl)-amide amide] |
| < 300 | CCNC(=O)[C@H]1CC[C@@H](n2nncc2-c2ccc(-c3ccc(Cl)cc3)cc2)C1 [Compound A14, (1S,3R)-3-[5-(4′-chloro-biphenyl-4-yl)-[1,2,3]triazol-1-yl]-cyclopentanecarboxylic acid ethylamide] |
